Results taken from PubChem BioAssay (NCI).
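Five concentrations, 48 hours, 96-well plates. Definition used: TGI = concentration required for complete inhibition of growth.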

Key:
Assay in all cases: growth of human tumour cells (NCI), 48 h
[1] = test system: HOP-92 NSCLC
[2] = test system: SF-295 CNS
[3] = test system: OVCAR-3 ovarian
[4] = test system: OVCAR-4 ovarian
[5] = test system: CAKI-1 renal
[6] = test system: RPMI-8226 leukemia
[7] = test system: MALME-3M melanoma
[8] = test system: M14 melanoma
[9] = test system: OVCAR-8 ovarian
[10] = test system: HS 578T breast
[11] = test system: SK-MEL-2 melanoma
[12] = test system: HCT-116 colon
[13] = test system: HT29 colon
[14] = test system: UACC-257 melanoma
[15] = test system: KM12 colon
[16] = test system: RXF 393 renal
[17] = test system: A498 renal
[18] = test system: UACC-62 melanoma
[19] = test system: SF-539 CNS
[20] = test system: HOP-62 NSCLC
[21] = test system: SR leukemia
[22] = test system: PC-3 prostate
[23] = test system: HCT-15 colon
[24] = test system: SK-OV-3 ovarian
[25] = test system: MCF7 breast
[26] = test system: EKVX NSCLC
[27] = test system: NCI-H23 lung
[28] = test system: SNB-19 CNS
[29] = test system: OVCAR-5 ovarian
[30] = test system: COLO 205 colon
[31] = test system: HL-60(TB) leukemia
[32] = test system: NCI-H460 lung
[33] = test system: 786-0 renal
[34] = test system: BT-549 breast
[35] = test system: IGROV1 ovarian
[36] = test system: SN12C renal
[37] = test system: TK-10 renal
[38] = test system: SF-268 CNS
[39] = test system: MDA-MB-435
[40] = test system: LOX IMVI melanoma
[41] = test system: DU-145 prostate
[42] = test system: SK-MEL-28 melanoma
[43] = test system: NCI-H226 lung
[44] = test system: U251 CNS
[45] = test system: SNB-75 CNS
[46] = test system: SK-MEL-5 melanoma
[47] = test system: ACHN renal
[48] = test system: A549 NSCLC
[49] = test system: UO-31 renal
[50] = test system: NCI-H522 lung
[51] = test system: MDA-N
[52] = test system: SW-620 colon
[53] = test system: NCI/ADR-RES ovarian
[54] = test system: HCC-2998 colon
[55] = test system: T-47D breast
[56] = test system: MDA-MB-231 breast
[57] = test system: CCRF-CEM leukemia
[58] = test system: MOLT-4 leukemia
[59] = test system: K-562 leukemia
[60] = test system: DMS 114 small cell lung
[61] = test system: KM20L2 colon
[62] = test system: LXFL 529 NSCLC
[63] = test system: DLD-1 colon
[64] = test system: SNB-78 CNS
[65] = test system: M19-MEL melanoma

COC(=O)c1cc(-c2ccc3ccccc3c2)[nH]c(=O)c1C#N
TGI [1]: > 100 µM
TGI [2]: > 100 µM
TGI [3]: > 100 µM
TGI [4]: > 100 µM
TGI [5]: > 100 µM
TGI [6]: > 100 µM
TGI [7]: > 100 µM
TGI [8]: > 100 µM
TGI [9]: > 100 µM
TGI [10]: > 100 µM
TGI [11]: > 100 µM
TGI [12]: > 100 µM
TGI [13]: > 100 µM
TGI [14]: > 100 µM
TGI [15]: > 100 µM
TGI [16]: > 100 µM
TGI [17]: > 100 µM
TGI [18]: > 100 µM
TGI [19]: > 100 µM
TGI [20]: > 100 µM
TGI [21]: > 100 µM
TGI [22]: > 100 µM
TGI [23]: > 100 µM
TGI [24]: > 100 µM
TGI [25]: > 100 µM
TGI [26]: > 100 µM
TGI [27]: > 100 µM
TGI [28]: > 100 µM
TGI [29]: > 100 µM
TGI [30]: > 100 µM
TGI [31]: 38.7 µM
TGI [32]: > 100 µM
TGI [33]: > 100 µM
TGI [34]: > 100 µM
TGI [35]: > 100 µM
TGI [36]: > 100 µM
TGI [37]: > 100 µM
TGI [38]: > 100 µM
TGI [39]: > 100 µM
TGI [40]: > 100 µM
TGI [41]: > 100 µM
TGI [42]: > 100 µM
TGI [43]: > 100 µM
TGI [44]: > 100 µM
TGI [45]: > 100 µM
TGI [46]: > 100 µM
TGI [47]: > 100 µM
TGI [48]: > 100 µM
TGI [49]: > 100 µM
TGI [50]: > 100 µM
TGI [51]: > 100 µM
TGI [52]: > 100 µM
TGI [53]: > 100 µM
TGI [54]: > 100 µM
TGI [55]: > 100 µM
TGI [56]: > 100 µM

N=c1c2sc3nc4ccccc4n3c2ncn1Cc1ccccc1
TGI [1]: > 100 µM
TGI [2]: > 100 µM
TGI [3]: > 100 µM
TGI [4]: > 100 µM
TGI [5]: > 100 µM
TGI [6]: > 100 µM
TGI [7]: > 100 µM
TGI [8]: > 100 µM
TGI [9]: > 100 µM
TGI [10]: > 100 µM
TGI [11]: > 100 µM
TGI [12]: > 100 µM
TGI [14]: > 100 µM
TGI [15]: > 100 µM
TGI [16]: > 100 µM
TGI [17]: > 100 µM
TGI [18]: > 100 µM
TGI [19]: > 100 µM
TGI [20]: > 100 µM
TGI [21]: > 100 µM
TGI [22]: > 100 µM
TGI [23]: > 100 µM
TGI [24]: > 100 µM
TGI [25]: > 100 µM
TGI [26]: > 100 µM
TGI [27]: > 100 µM
TGI [28]: > 100 µM
TGI [29]: > 100 µM
TGI [30]: > 100 µM
TGI [33]: > 100 µM
TGI [34]: > 100 µM
TGI [35]: > 100 µM
TGI [57]: > 100 µM
TGI [37]: > 100 µM
TGI [38]: > 100 µM
TGI [39]: > 100 µM
TGI [40]: > 100 µM
TGI [41]: > 100 µM
TGI [42]: > 100 µM
TGI [43]: > 100 µM
TGI [44]: > 100 µM
TGI [45]: > 100 µM
TGI [58]: > 100 µM
TGI [46]: > 100 µM
TGI [47]: > 100 µM
TGI [48]: > 100 µM
TGI [49]: > 100 µM
TGI [50]: > 100 µM
TGI [51]: > 100 µM
TGI [52]: > 100 µM
TGI [53]: > 100 µM
TGI [54]: > 100 µM
TGI [55]: > 100 µM
TGI [56]: > 100 µM

CCOC(=O)C1(CC(=O)O)CCCC1=O (centres undefined)
TGI [1]: > 100 µM
TGI [2]: > 100 µM
TGI [3]: > 100 µM
TGI [4]: > 100 µM
TGI [5]: > 100 µM
TGI [6]: > 100 µM
TGI [7]: > 100 µM
TGI [8]: > 100 µM
TGI [9]: > 100 µM
TGI [10]: > 100 µM
TGI [11]: > 100 µM
TGI [12]: > 100 µM
TGI [13]: > 100 µM
TGI [14]: > 100 µM
TGI [15]: > 100 µM
TGI [16]: > 100 µM
TGI [17]: > 100 µM
TGI [18]: > 100 µM
TGI [59]: > 100 µM
TGI [19]: > 100 µM
TGI [20]: > 100 µM
TGI [21]: > 100 µM
TGI [22]: > 100 µM
TGI [23]: > 100 µM
TGI [24]: > 100 µM
TGI [25]: > 100 µM
TGI [26]: > 100 µM
TGI [27]: > 100 µM
TGI [28]: > 100 µM
TGI [29]: > 100 µM
TGI [30]: > 100 µM
TGI [31]: > 100 µM
TGI [32]: > 100 µM
TGI [33]: > 100 µM
TGI [34]: > 100 µM
TGI [35]: > 100 µM
TGI [57]: > 100 µM
TGI [36]: > 100 µM
TGI [37]: > 100 µM
TGI [38]: > 100 µM
TGI [39]: > 100 µM
TGI [40]: > 100 µM
TGI [41]: > 100 µM
TGI [42]: > 100 µM
TGI [43]: > 100 µM
TGI [44]: > 100 µM
TGI [45]: > 100 µM
TGI [58]: > 100 µM
TGI [46]: > 100 µM
TGI [47]: > 100 µM
TGI [48]: > 100 µM
TGI [49]: > 100 µM
TGI [50]: > 100 µM
TGI [51]: > 100 µM
TGI [52]: > 100 µM
TGI [53]: > 100 µM
TGI [55]: > 100 µM
TGI [56]: > 100 µM

CC1=C(C(=O)Nc2cccc(Cl)c2)C(c2ccccc2O)C(C(=O)Nc2cccc(Cl)c2)=C(C)N1
TGI [1]: 37 µM
TGI [2]: 40.6 µM
TGI [3]: 40 µM
TGI [4]: 35.6 µM
TGI [5]: 43.3 µM
TGI [6]: 46 µM
TGI [7]: 38.6 µM
TGI [8]: 31.7 µM
TGI [9]: 60.1 µM
TGI [11]: 32.2 µM
TGI [13]: 35.7 µM
TGI [14]: 36.6 µM
TGI [15]: 31.2 µM
TGI [16]: 31.9 µM
TGI [17]: 38 µM
TGI [59]: 53.7 µM
TGI [19]: 34.3 µM
TGI [20]: 39.8 µM
TGI [24]: 54.4 µM
TGI [26]: 47.6 µM
TGI [27]: 33.1 µM
TGI [28]: 52.1 µM
TGI [29]: 38.6 µM
TGI [60]: 54.6 µM
TGI [30]: 43.2 µM
TGI [31]: 48.1 µM
TGI [32]: 46.4 µM
TGI [61]: 37.7 µM
TGI [62]: 39.3 µM
TGI [33]: 29.2 µM
TGI [35]: 70.7 µM
TGI [57]: 50.2 µM
TGI [36]: 39 µM
TGI [37]: 39.5 µM
TGI [38]: 37.9 µM
TGI [40]: 39.7 µM
TGI [63]: 33 µM
TGI [42]: 31.9 µM
TGI [64]: 57.2 µM
TGI [43]: 33.1 µM
TGI [44]: 41.4 µM
TGI [45]: 43 µM
TGI [58]: 59.2 µM
TGI [46]: 31.5 µM
TGI [47]: 53.8 µM
TGI [48]: 43.8 µM
TGI [49]: 31.3 µM
TGI [65]: 40.6 µM
TGI [50]: 34.1 µM
TGI [52]: 35.8 µM
TGI [54]: 33.1 µM
